Data taken from PubChem BioAssay AID1963450 (Molecular Pharmacology Branch, DTP, NCI, 2024).

Test system: 556581-035-R-J1-PDC complex spheroid growth
Experiment: Anticancer human tumor 556581-035-R-J1-PDC patient-derived ovarian carcinoma cell line growth inhibition [Asc]
Conditions: for IC50: curve of first compound; for viability, T/C: stronger effect = lower value; active = viability on the fitted dose curve at most 10% of control; inactive = the rest
How it was run: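 Spheroid model: tumor line + HUVEC + hMSC. Single agents and combinations; top conc. at/near clinical Cmax (10 microM if undetermined), half-log dilutions. DMSO stocks at 800-fold test concentration.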
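Note: spheroids exposed to agents for 7 days before viability read.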

CCN1CCN(Cc2ccc(Nc3ncc(F)c(-c4cc(F)c5nc(C)n(C(C)C)c5c4)n3)nc2)CC1 + Cc1c(S(C)(=O)=O)c(-c2cc(F)cc(N3CCN(c4ccc(NS(=O)(=O)c5ccc(NC(CCN6CCC(C(=O)OCCCP(=O)(O)O)CC6)CSc6ccccc6)c(S(=O)(=O)C(F)(F)F)c5)cc4)CC3)c2)c(-c2ccc(Cl)cc2)n1C(C)C
> 1000 nM: IC50 (second compound 0.1 µM) | IC50 (second compound 0.316 µM)
556 nM: IC50 (second compound 1 µM)
inactive: viability, T/C (second compound 0.1 µM, first compound 0.00316 µM) 99.3% | viability, T/C (second compound 0.1 µM, first compound 0.01 µM) 75.3% | viability, T/C (second compound 0.1 µM, first compound 0.0316 µM) 88.9% | viability, T/C (second compound 0.1 µM, first compound 0.1 µM) 78.1% | viability, T/C (second compound 0.1 µM, first compound 0.316 µM) 87.8% | viability, T/C (second compound 0.1 µM, first compound 1 µM) 61% | viability, T/C (second compound 0.316 µM, first compound 0.00316 µM) 83.7% | viability, T/C (second compound 0.316 µM, first compound 0.01 µM) 77.5% | viability, T/C (second compound 0.316 µM, first compound 0.0316 µM) 86.5% | viability, T/C (second compound 0.316 µM, first compound 0.1 µM) 83.5% | viability, T/C (second compound 0.316 µM, first compound 0.316 µM) 74.7% | viability, T/C (second compound 0.316 µM, first compound 1 µM) 57.5% | viability, T/C (second compound 1 µM, first compound 0.00316 µM) 78.2% | viability, T/C (second compound 1 µM, first compound 0.01 µM) 89.6% | viability, T/C (second compound 1 µM, first compound 0.0316 µM) 86.6% | viability, T/C (second compound 1 µM, first compound 0.1 µM) 77.3% | viability, T/C (second compound 1 µM, first compound 0.316 µM) 62% | viability, T/C (second compound 1 µM, first compound 1 µM) 37.9% | viability, T/C (second compound 3.16 µM, first compound 0.00316 µM) 69.6% | viability, T/C (second compound 3.16 µM, first compound 0.01 µM) 86.1% | viability, T/C (second compound 3.16 µM, first compound 0.0316 µM) 90.1% | viability, T/C (second compound 3.16 µM, first compound 0.1 µM) 66.5% | viability, T/C (second compound 3.16 µM, first compound 0.316 µM) 67.6% | viability, T/C (second compound 3.16 µM, first compound 1 µM) 45.5% | viability, T/C (second compound 10 µM, first compound 0.00316 µM) 68.9% | viability, T/C (second compound 10 µM, first compound 0.01 µM) 69.7% | viability, T/C (second compound 10 µM, first compound 0.0316 µM) 79.9% | viability, T/C (second compound 10 µM, first compound 0.1 µM) 64% | viability, T/C (second compound 10 µM, first compound 0.316 µM) 70.6% | viability, T/C (second compound 10 µM, first compound 1 µM) 16.7%
490 nM: IC50 (second compound 10 µM)
782 nM: IC50 (second compound 3.16 µM)

Cc1nc(N2CCC3(CC2)COC(C)C3N)c(CO)nc1Sc1ccnc(N)c1Cl (stereo not given) + CCN1C(C(=O)NC23CCC(C(=O)O)(CC2)CC3)C(c2cccc(Cl)c2F)C2(C(=O)Nc3cc(Cl)ccc32)C12CCCCC2
847 nM: IC50 (second compound 3 µM)
> 3000 nM: IC50 (second compound 0.3 µM)
2240 nM: IC50 (second compound 0.03 µM)
inactive: viability, T/C (second compound 0.03 µM, first compound 0.00949 µM) 84.7% | viability, T/C (second compound 0.03 µM, first compound 0.03 µM) 82.1% | viability, T/C (second compound 0.03 µM, first compound 0.0949 µM) 74% | viability, T/C (second compound 0.03 µM, first compound 0.3 µM) 62.4% | viability, T/C (second compound 0.03 µM, first compound 0.949 µM) 64.3% | viability, T/C (second compound 0.03 µM, first compound 3 µM) 45.1% | viability, T/C (second compound 0.0949 µM, first compound 0.00949 µM) 88.9% | viability, T/C (second compound 0.0949 µM, first compound 0.03 µM) 91.2% | viability, T/C (second compound 0.0949 µM, first compound 0.0949 µM) 88.1% | viability, T/C (second compound 0.0949 µM, first compound 0.3 µM) 66.5% | viability, T/C (second compound 0.0949 µM, first compound 0.949 µM) 60.6% | viability, T/C (second compound 0.0949 µM, first compound 3 µM) 39.4% | viability, T/C (second compound 0.3 µM, first compound 0.00949 µM) 85.7% | viability, T/C (second compound 0.3 µM, first compound 0.03 µM) 95.7% | viability, T/C (second compound 0.3 µM, first compound 0.0949 µM) 72.8% | viability, T/C (second compound 0.3 µM, first compound 0.3 µM) 73.7% | viability, T/C (second compound 0.3 µM, first compound 0.949 µM) 49.5% | viability, T/C (second compound 0.3 µM, first compound 3 µM) 58.9% | viability, T/C (second compound 0.949 µM, first compound 0.00949 µM) 93.4% | viability, T/C (second compound 0.949 µM, first compound 0.03 µM) 82.3% | viability, T/C (second compound 0.949 µM, first compound 0.0949 µM) 80.9% | viability, T/C (second compound 0.949 µM, first compound 0.3 µM) 68.4% | viability, T/C (second compound 0.949 µM, first compound 0.949 µM) 54.7% | viability, T/C (second compound 0.949 µM, first compound 3 µM) 49.4% | viability, T/C (second compound 3 µM, first compound 0.00949 µM) 88.4% | viability, T/C (second compound 3 µM, first compound 0.03 µM) 78.7% | viability, T/C (second compound 3 µM, first compound 0.0949 µM) 79.7% | viability, T/C (second compound 3 µM, first compound 0.3 µM) 60.8% | viability, T/C (second compound 3 µM, first compound 0.949 µM) 45.7% | viability, T/C (second compound 3 µM, first compound 3 µM) 50.6%
1530 nM: IC50 (second compound 0.0949 µM)
2430 nM: IC50 (second compound 0.949 µM)
